Key:
[1] = biological target: T1, human recombinant HDAC1 (Homo sapiens, UniProt Q13547); assay: HDAC1 enzyme activity inhibition assay (HDAC Fluorimetric Drug Discovery Kit); format: biochemical; settings: 0.3 μg enzyme, 10 μM substrate, 30° C., 60 minutes
T1 construct: purchased Enzo Life Science BML-SE456
Summary of the method: (§1)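 Both isoforms are run by an identical fluorimetric protocol: deacetylation of 10 μM Fluor de Lys-SIRT1 substrate by 0.3 μg recombinant enzyme over 60 min at 30° C, in the presence of 5-fold compound dilutions. Signal is developed for 30 min and read at Ex 360/Em 460 to derive IC50.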

[2] = biological target: T2, human recombinant HDAC6 (Homo sapiens, UniProt Q9UBN7); assay: HDAC6 enzyme activity inhibition assay (HDAC Fluorimetric Drug Discovery Kit); format: biochemical; settings: for HDAC6 selectivity (fold): HDAC1 vs HDAC6; for IC50: same protocol as the HDAC1 enzyme activity test
T2 construct: purchased Calbiochem 382180
T2 sequence (Q9UBN7 1-1215): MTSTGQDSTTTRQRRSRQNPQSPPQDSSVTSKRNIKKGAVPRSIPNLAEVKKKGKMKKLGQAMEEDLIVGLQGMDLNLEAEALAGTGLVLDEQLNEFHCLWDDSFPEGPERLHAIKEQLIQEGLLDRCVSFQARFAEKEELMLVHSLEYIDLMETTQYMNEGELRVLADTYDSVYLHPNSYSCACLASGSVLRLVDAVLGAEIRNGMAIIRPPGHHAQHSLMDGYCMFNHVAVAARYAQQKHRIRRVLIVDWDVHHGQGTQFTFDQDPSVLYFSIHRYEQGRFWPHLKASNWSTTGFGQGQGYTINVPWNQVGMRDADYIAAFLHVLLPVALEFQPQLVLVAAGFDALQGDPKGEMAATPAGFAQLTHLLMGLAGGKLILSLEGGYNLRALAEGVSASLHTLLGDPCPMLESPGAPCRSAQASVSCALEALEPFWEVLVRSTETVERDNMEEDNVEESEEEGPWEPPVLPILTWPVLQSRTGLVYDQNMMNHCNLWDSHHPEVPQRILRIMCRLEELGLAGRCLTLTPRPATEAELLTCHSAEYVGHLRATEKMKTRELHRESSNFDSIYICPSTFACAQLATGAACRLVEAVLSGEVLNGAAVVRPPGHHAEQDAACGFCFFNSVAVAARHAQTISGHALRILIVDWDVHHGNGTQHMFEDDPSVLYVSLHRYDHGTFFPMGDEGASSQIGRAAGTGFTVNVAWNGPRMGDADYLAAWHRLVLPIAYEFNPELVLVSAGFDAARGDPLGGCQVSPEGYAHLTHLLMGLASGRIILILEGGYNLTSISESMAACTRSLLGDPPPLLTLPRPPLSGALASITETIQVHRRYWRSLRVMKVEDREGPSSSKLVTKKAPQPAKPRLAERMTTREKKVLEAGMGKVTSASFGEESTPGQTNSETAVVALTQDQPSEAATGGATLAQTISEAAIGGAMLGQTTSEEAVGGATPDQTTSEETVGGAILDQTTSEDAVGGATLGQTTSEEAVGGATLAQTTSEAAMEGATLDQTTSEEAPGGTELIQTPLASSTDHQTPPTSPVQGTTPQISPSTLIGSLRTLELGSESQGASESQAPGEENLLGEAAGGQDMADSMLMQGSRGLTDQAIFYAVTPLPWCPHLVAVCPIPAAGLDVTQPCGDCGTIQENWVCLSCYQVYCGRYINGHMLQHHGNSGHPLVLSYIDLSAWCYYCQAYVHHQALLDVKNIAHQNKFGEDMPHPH
Summary of the method: as §1

T1 sequence (Q13547 whole entry): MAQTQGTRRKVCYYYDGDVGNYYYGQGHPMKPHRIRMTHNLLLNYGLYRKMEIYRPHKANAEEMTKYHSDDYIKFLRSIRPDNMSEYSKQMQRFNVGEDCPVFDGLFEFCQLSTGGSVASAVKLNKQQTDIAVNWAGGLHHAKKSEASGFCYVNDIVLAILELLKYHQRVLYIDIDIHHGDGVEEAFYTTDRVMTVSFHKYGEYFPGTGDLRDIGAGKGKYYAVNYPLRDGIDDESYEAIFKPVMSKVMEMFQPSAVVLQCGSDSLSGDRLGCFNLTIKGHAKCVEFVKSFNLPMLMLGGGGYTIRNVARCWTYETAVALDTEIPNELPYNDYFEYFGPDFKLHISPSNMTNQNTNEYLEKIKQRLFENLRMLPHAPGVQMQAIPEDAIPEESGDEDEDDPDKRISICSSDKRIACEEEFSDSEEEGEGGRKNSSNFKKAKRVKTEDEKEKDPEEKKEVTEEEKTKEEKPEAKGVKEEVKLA

IC50 [1]	HDAC6 selectivity (fold) [2]	IC50 [2]	Structure (SMILES)
34.2 µM	425 fold	0.0805 µM	Cc1cccc(N(Cc2ccc(-c3nnc(C(F)F)o3)cn2)S(=O)(=O)C2CCN([C@H]3CC[C@@H](C(F)(F)F)CC3)CC2)c1 [Compound 11691, N-((5-(5-(difluoromethyl)-1,3,4-oxadiazol-2-yl)pyridin-2-yl)methyl)-N-(m-tolyl)-1-((1s,4s)-4-(trifluoromethyl)cyclohexyl)piperidine-4-sulfonamide]
71.7 µM	1309 fold	0.0547 µM	Cc1cccc(N(Cc2ccc(-c3nnc(C(F)F)o3)cn2)S(=O)(=O)C2CCN(C3CCOCC3)CC2)c1 [Compound 11692, N-((5-(5-(difluoromethyl)-1,3,4-oxadiazol-2-yl)pyridin-2-yl)methyl)-1-(tetrahydro-2H-pyran-4-yl)-N-(m-tolyl)piperidine-4-sulfonamide]
61.4 µM	306 fold	0.2 µM	Cc1cccc(N(Cc2ccc(-c3nnc(C(F)F)o3)cc2)S(=O)(=O)C2CCN([C@H]3CC[C@H](F)CC3)CC2)c1 [Compound 11695, N-(4-(5-(difluoromethyl)-1,3,4-oxadiazol-2-yl)benzyl)-1-((1r,4r)-4-fluorocyclohexyl)-N-(m-tolyl)piperidine-4-sulfonamide]
51.4 µM	289 fold	0.178 µM	Cc1cccc(N(Cc2ccc(-c3nnc(C(F)F)o3)cc2)S(=O)(=O)C2CCN([C@H]3CC[C@@H](F)CC3)CC2)c1 [Compound 11696, N-(4-(5-(difluoromethyl)-1,3,4-oxadiazol-2-yl)benzyl)-1-((1s,4s)-4-fluorocyclohexyl)-N-(m-tolyl)piperidine-4-sulfonamide]
42.5 µM	597 fold	0.0711 µM	C[C@H]1CCCN1CCCS(=O)(=O)N(Cc1ccc(-c2nnc(C(F)F)o2)cc1)c1ccccc1 [Compound 11707, (S)—N-(4-(5-(difluoromethyl)-1,3,4-oxadiazol-2-yl)benzyl)-3-(2-methylpyrrolidin-1-yl)-N-phenylpropane-1-sulfonamide]
65.1 µM	837 fold	0.0778 µM	O=S(=O)(CCCO)N(Cc1ccc(-c2nnc(C(F)F)o2)cc1)c1ccccc1 [Compound 11708, N-(4-(5-(difluoromethyl)-1,3,4-oxadiazol-2-yl)benzyl)-3-hydroxy-N-phenylpropane-1-sulfonamide]
80.4 µM	1065 fold	0.0755 µM	O=C(OCCCS(=O)(=O)N(Cc1ccc(-c2nnc(C(F)F)o2)cc1)c1ccccc1)C(F)F [Compound 11709, 3-(N-(4-(5-(difluoromethyl)-1,3,4-oxadiazol-2-yl)benzyl)-N-phenylsulfamoyl)propyl 2,2-difluoroacetate]
29.4 µM	578 fold	0.0509 µM	O=S(=O)(CCCN1CCCC1)N(Cc1ccc(-c2nnc(C(F)F)o2)cn1)c1ccccc1 [Compound 11710, N-((5-(5-(difluoromethyl)-1,3,4-oxadiazol-2-yl)pyridin-2-yl)methyl)-N-phenyl-3-(pyrrolidin-1-yl)propane-1-sulfonamide]
61.3 µM	874 fold	0.0701 µM	O=S(=O)(CCCN1CCOCC1)N(Cc1ccc(-c2nnc(C(F)F)o2)cn1)c1ccc(F)c(Cl)c1 [Compound 11711, N-(3-chloro-4-fluorophenyl)-N-((5-(5-(difluoromethyl)-1,3,4-oxadiazol-2-yl)pyridin-2-yl)methyl)-3-morpholinopropane-1-sulfonamide]
41 µM	1266 fold	0.0324 µM	O=S(=O)(CCCN1CCCC1)N(Cc1ccc(-c2nnc(C(F)F)o2)cc1)c1ccc(F)c(Cl)c1 [Compound 11722, N-(3-chloro-4-fluorophenyl)-N-(4-(5-(difluoromethyl)-1,3,4-oxadiazol-2-yl)benzyl)-3-(pyrrolidin-1-yl)propane-1-sulfonamide]
33.5 µM	594 fold	0.0563 µM	O=S(=O)(C1CCN([C@H]2CC[C@H](F)CC2)CC1)N(Cc1ccc(-c2nnc(C(F)F)o2)cn1)c1cccc(Cl)c1 [Compound 11727, N-(3-chlorophenyl)-N-((5-(5-(difluoromethyl)-1,3,4-oxadiazol-2-yl)pyridin-2-yl)methyl)-1-((1r,4r)-4-fluorocyclohexyl)piperidine-4-sulfonamide]
21.6 µM	453 fold	0.0476 µM	O=S(=O)(C1CCN([C@H]2CC[C@@H](F)CC2)CC1)N(Cc1ccc(-c2nnc(C(F)F)o2)cn1)c1cccc(Cl)c1 [Compound 11728, N-(3-chlorophenyl)-N-((5-(5-(difluoromethyl)-1,3,4-oxadiazol-2-yl)pyridin-2-yl)methyl)-1-((1s,4s)-4-fluorocyclohexyl)piperidine-4-sulfonamide]
24.5 µM	445 fold	0.0551 µM	NC(=O)[C@@H]1CCCN1CCS(=O)(=O)N(Cc1ccc(-c2nnc(C(F)F)o2)cn1)c1ccccc1 [Compound 11847, (S)-1-(2-(N-((5-(5-(difluoromethyl)-1,3,4-oxadiazol-2-yl)pyridin-2-yl)methyl)-N-phenylsulfamoyl)ethyl)pyrrolidine-2-carboxamide]
38.9 µM	661 fold	0.0589 µM	NC(=O)[C@H]1CCCN1CCS(=O)(=O)N(Cc1ccc(-c2nnc(C(F)F)o2)cn1)c1ccccc1 [Compound 11848, (R)-1-(2-(N-((5-(5-(difluoromethyl)-1,3,4-oxadiazol-2-yl)pyridin-2-yl)methyl)-N-phenylsulfamoyl)ethyl)pyrrolidine-2-carboxamide]

Source: patent US10538498B2, “1,3,4-oxadiazole sulfonamide derivative compounds as histone deacetylase 6 inhibitor, and the pharmaceutical composition comprising the same” (Chong Kun Dang Pharmaceutical Corp., priority 2015, dated 2020)
